Data from ChEMBL document CHEMBL1154782, “Discovery of Trp-His and His-Arg analogues as new structural classes of short antimicrobial peptides” (J Med Chem, 2009).
Converted amounts (≈) assume the structure as drawn. Where a SMILES comes first, the peptide text is derived from it. The star is where a group is joined. Boc = CC(C)(C)OC(=O)*; NHBn = c1ccc(CN*)cc1

Legend:
[1] = tested on: Escherichia coli; experiment: Antibacterial activity against Escherichia coli ATCC 35218 after 15 to 18 hrs under aerobic condition by modified broth microdilution method; format: functional
[2] = tested on: Pseudomonas aeruginosa; experiment: Antibacterial activity against Pseudomonas aeruginosa ATCC 9027 after 15 to 18 hrs under aerobic condition by modified broth microdilution method; format: functional
[3] = tested on: Staphylococcus aureus; experiment: Antibacterial activity against methicillin-resistant Staphylococcus aureus DSM 50128509; format: functional, organism-based
[4] = tested on: Candida albicans; experiment: Antifungal activity against Candida albicans ATCC 10231 after 15 to 18 hrs under aerobic condition by modified broth microdilution method; format: functional
[5] = tested on: Staphylococcus epidermidis; experiment: Antibacterial activity against methicillin-resistant Staphylococcus epidermidis DSM 50160384 after 15 to 18 hrs under aerobic condition by modified broth microdilution method; format: functional
[6] = tested on: Staphylococcus aureus; experiment: Antibacterial activity against methicillin-resistant Staphylococcus aureus DSM 50128509 after 15 to 18 hrs under aerobic condition by modified broth microdilution method; format: functional
[7] = tested on: L929; experiment: Cytotoxicity against mouse L929 cells up to 200 ug/mL after 5 days by MTT assay; format: cell-based; conditions: l929, 120 h
[8] = tested on: Klebsiella pneumoniae; experiment: Antibacterial activity against Klebsiella pneumoniae ATCC 700603 after 15 to 18 hrs under aerobic condition by modified broth microdilution method; format: functional
[9] = tested on: Candida albicans; experiment: Antifungal activity against Candida albicans ATCC 10231; format: functional, organism-based
[10] = tested on: Escherichia coli; experiment: Antibacterial activity against Escherichia coli ATCC 35218; format: functional, organism-based
[11] = tested on: Staphylococcus epidermidis; experiment: Antibacterial activity against methicillin-resistant Staphylococcus epidermidis DSM 50160384; format: functional, organism-based
[12] = tested on: Klebsiella pneumoniae; experiment: Antibacterial activity against Klebsiella pneumoniae ATCC 700603; format: functional, organism-based

SMILES	MIC [1] [µg/mL]	MIC [2] [µg/mL]	IC50 [3] [µg/mL]	MIC [4] [µg/mL]	MIC [5] [µg/mL]	MIC [6] [µg/mL]	Activity [7]	MIC [8] [µg/mL]	IC50 [9] [µg/mL]	IC50 [10] [µg/mL]	IC50 [11] [µg/mL]	IC50 [12] [µg/mL]
CC(C)(C)OC(=O)N[C@@H](Cc1c[nH]c2ccccc12)C(=O)N[C@@H](Cc1c[nH]c(C2CCC2)n1)C(=O)NCc1ccccc1	> 200	> 200	22.4 (≈ 38.2 µM)	200 (≈ 342 µM)	> 200	200 (≈ 342 µM)	Non-toxic	> 200	33.2 (≈ 56.7 µM)	–	–	–
COC(=O)[C@H](Cc1c[nH]c(C2CCCCC2)n1)NC(=O)[C@H](Cc1c[nH]c2ccccc12)NC(=O)OC(C)(C)C	200 (≈ 372 µM)	> 200	14 (≈ 26 µM)	200 (≈ 372 µM)	50 (≈ 93 µM)	200 (≈ 372 µM)	Non-toxic	> 200	17.7 (≈ 32.9 µM)	20.9 (≈ 38.8 µM)	6.29 (≈ 11.7 µM)	–
COC(=O)[C@H](Cc1c[nH]c(C23CC4CC(CC(C4)C2)C3)n1)NC(=O)[C@H](Cc1c[nH]c2ccccc12)NC(=O)OC(C)(C)C	100 (≈ 170 µM)	> 200	1.69 (≈ 2.87 µM)	200 (≈ 339 µM)	50 (≈ 84.8 µM)	20 (≈ 33.9 µM)	Non-toxic	> 200	26.6 (≈ 45.1 µM)	6.59 (≈ 11.2 µM)	4.03 (≈ 6.83 µM)	–
N[C@@H](Cc1c[nH]c2ccccc12)C(=O)N[C@@H](Cc1c[nH]c(C2CCC2)n1)C(=O)NCc1ccccc1	200 (≈ 413 µM)	> 200	27.1 (≈ 55.9 µM)	100 (≈ 206 µM)	50 (≈ 103 µM)	100 (≈ 206 µM)	Non-toxic	> 200	10.3 (≈ 21.3 µM)	22.5 (≈ 46.4 µM)	8.51 (≈ 17.6 µM)	–
CC(C)(C)OC(=O)N[C@@H](Cc1c[nH]c(C2CCC2)n1)C(=O)N[C@@H](CCCNC(=N)N)C(=O)NCc1ccccc1	> 200	> 200	–	> 200	200 (≈ 361 µM)	> 200	Non-toxic	200 (≈ 361 µM)	–	–	19.3 (≈ 34.8 µM)	20.8 (≈ 37.5 µM)
COC(=O)[C@H](Cc1c[nH]c(C2CCC2)n1)NC(=O)[C@H](Cc1c[nH]c2ccccc12)NC(=O)OC(C)(C)C	200 (≈ 392 µM)	> 200	2.95 (≈ 5.79 µM)	> 200	100 (≈ 196 µM)	100 (≈ 196 µM)	Non-toxic	> 200	–	24.6 (≈ 48.3 µM)	5.44 (≈ 10.7 µM)	–
COC(=O)[C@H](CCCNC(=N)N)NC(=O)[C@@H](N)Cc1c[nH]c(C(C)C)n1	200 (≈ 544 µM)	> 200	4.82 (≈ 13.1 µM)	> 200	50 (≈ 136 µM)	50 (≈ 136 µM)	Non-toxic	> 200	–	9.98 (≈ 27.2 µM)	5.42 (≈ 14.8 µM)	–
CC(C)(C)OC(=O)N[C@@H](Cc1c[nH]c(C(C)(C)C)n1)C(=O)N[C@@H](CCCNC(=N)N)C(=O)NCc1ccccc1	100 (≈ 180 µM)	> 200	17.5 (≈ 31.5 µM)	200 (≈ 359 µM)	> 200	200 (≈ 359 µM)	Non-toxic	> 200	33.1 (≈ 59.5 µM)	12 (≈ 21.6 µM)	–	–
N=C(N)NCCC[C@H](NC(=O)[C@@H](N)Cc1c[nH]c(C2CCC2)n1)C(=O)NCc1ccccc1	> 200	> 200	6.99 (≈ 15.4 µM)	100 (≈ 220 µM)	50 (≈ 110 µM)	50 (≈ 110 µM)	Non-toxic	> 200	9.95 (≈ 21.9 µM)	–	3.94 (≈ 8.67 µM)	–
COC(=O)[C@H](CCCNC(=N)N)NC(=O)[C@@H](N)Cc1c[nH]c(C2CCCCC2)n1	> 200	> 200	20.9 (≈ 51.4 µM)	200 (≈ 491 µM)	10 (≈ 24.5 µM)	50 (≈ 123 µM)	Non-toxic	> 200	27.5 (≈ 67.6 µM)	–	1.92 (≈ 4.71 µM)	–
COC(=O)[C@H](Cc1c[nH]c(C2CCCCC2)n1)NC(=O)[C@@H](N)Cc1c[nH]c2ccccc12	> 200	> 200	10.1 (≈ 23.1 µM)	> 200	200 (≈ 457 µM)	100 (≈ 229 µM)	Non-toxic	200 (≈ 457 µM)	–	–	12.5 (≈ 28.5 µM)	29.4 (≈ 67.1 µM)
COC(=O)[C@H](Cc1c[nH]c(C(C)(C)C)n1)NC(=O)[C@H](Cc1c[nH]c2ccccc12)NC(=O)OC(C)(C)C	200 (≈ 391 µM)	> 200	4.35 (≈ 8.5 µM)	> 200	100 (≈ 195 µM)	50 (≈ 97.7 µM)	Non-toxic	> 200	–	16.3 (≈ 31.8 µM)	8.12 (≈ 15.9 µM)	–
COC(=O)[C@H](Cc1c[nH]c(C2CCC2)n1)NC(=O)[C@@H](N)Cc1c[nH]c2ccccc12	200 (≈ 488 µM)	> 200	9.54 (≈ 23.3 µM)	200 (≈ 488 µM)	200 (≈ 488 µM)	200 (≈ 488 µM)	Non-toxic	> 200	18.2 (≈ 44.6 µM)	9.48 (≈ 23.2 µM)	14.5 (≈ 35.5 µM)	–
COC(=O)[C@H](Cc1c[nH]c(C(C)C)n1)NC(=O)[C@@H](N)Cc1c[nH]c2ccccc12	200 (≈ 503 µM)	> 200	13.1 (≈ 33 µM)	200 (≈ 503 µM)	> 200	200 (≈ 503 µM)	Non-toxic	> 200	15.6 (≈ 39.3 µM)	12.2 (≈ 30.7 µM)	–	–
COC(=O)[C@H](Cc1c[nH]c(C(C)(C)C)n1)NC(=O)[C@@H](N)Cc1c[nH]c2ccccc12	200 (≈ 486 µM)	> 200	4.21 (≈ 10.2 µM)	> 200	100 (≈ 243 µM)	10 (≈ 24.3 µM)	Non-toxic	> 200	–	19 (≈ 46.2 µM)	6.73 (≈ 16.4 µM)	–
COC(=O)[C@H](CCCNC(=N)N)NC(=O)[C@H](Cc1c[nH]c(C(C)C)n1)NC(=O)OC(C)(C)C	> 200	> 200	12.4 (≈ 26.6 µM)	200 (≈ 428 µM)	200 (≈ 428 µM)	200 (≈ 428 µM)	Non-toxic	> 200	20.9 (≈ 44.6 µM)	–	13.1 (≈ 28 µM)	–
CC(C)(C)OC(=O)N[C@@H](Cc1c[nH]c2ccccc12)C(=O)N[C@@H](Cc1c[nH]c(C23CC4CC(CC(C4)C2)C3)n1)C(=O)NCc1ccccc1	> 200	> 200	7.59 (≈ 11.4 µM)	200 (≈ 301 µM)	200 (≈ 301 µM)	100 (≈ 150 µM)	Non-toxic	200 (≈ 301 µM)	28.3 (≈ 42.6 µM)	–	29.1 (≈ 43.7 µM)	–
COC(=O)[C@H](CCCNC(=N)N)NC(=O)[C@@H](N)Cc1c[nH]c(C2CCC2)n1	200 (≈ 527 µM)	> 200	9.28 (≈ 24.5 µM)	200 (≈ 527 µM)	100 (≈ 264 µM)	200 (≈ 527 µM)	Non-toxic	> 200	14 (≈ 36.8 µM)	15.3 (≈ 40.3 µM)	6.66 (≈ 17.6 µM)	–
COC(=O)[C@H](Cc1c[nH]cn1)NC(=O)[C@H](Cc1c[nH]c2ccccc12)NC(=O)OC(C)(C)C (Boc-Trp-His-OMe)	> 200	> 200	16.4 (≈ 35.9 µM)	200 (≈ 439 µM)	> 200	200 (≈ 439 µM)	Non-toxic	> 200	31.4 (≈ 68.9 µM)	–	–	–
N=C(N)NCCC[C@H](NC(=O)[C@@H](N)Cc1c[nH]cn1)C(=O)NCc1ccccc1 (H-His-Arg-NHBn)	> 200	> 200	7.04 (≈ 17.6 µM)	200 (≈ 499 µM)	100 (≈ 250 µM)	100 (≈ 250 µM)	Non-toxic	> 200	16.6 (≈ 41.5 µM)	–	8.07 (≈ 20.2 µM)	–
COC(=O)[C@H](CCCNC(=N)N)NC(=O)[C@@H](N)Cc1c[nH]cn1 (H-His-Arg-OMe)	> 200	> 200	4.88 (≈ 15 µM)	> 200	50 (≈ 154 µM)	100 (≈ 307 µM)	Non-toxic	> 200	–	–	2.72 (≈ 8.36 µM)	–
N[C@@H](Cc1c[nH]c2ccccc12)C(=O)N[C@@H](Cc1c[nH]cn1)C(=O)NCc1ccccc1 (H-Trp-His-NHBn)	> 200	> 200	12.3 (≈ 28.5 µM)	200 (≈ 465 µM)	200 (≈ 465 µM)	200 (≈ 465 µM)	Non-toxic	> 200	15.2 (≈ 35.2 µM)	–	29 (≈ 67.3 µM)	–
COC(=O)[C@H](Cc1c[nH]cn1)NC(=O)[C@@H](N)Cc1c[nH]c2ccccc12 (H-Trp-His-OMe)	200 (≈ 563 µM)	> 200	–	200 (≈ 563 µM)	> 200	> 200	Non-toxic	> 200	20.6 (≈ 58 µM)	18.5 (≈ 52.1 µM)	–	–
C[C@@H]1[C@H](O)[C@@H](C)/C=C/C=C/C=C/C=C/C=C/C=C/C=C/[C@H](O[C@@H]2O[C@H](C)[C@@H](O)[C@H](N)[C@@H]2O)C[C@@H]2O[C@](O)(C[C@@H](O)C[C@@H](O)[C@H](O)CC[C@@H](O)C[C@@H](O)CC(=O)O[C@H]1C)C[C@H](O)[C@H]2C(=O)O [AMPHOTERICIN B]	–	–	–	–	–	–	–	–	0.34 (≈ 0.368 µM)	–	–	–
NC[C@@H]1O[C@H](O[C@H]2[C@@H](O)[C@H](O[C@@H]3[C@@H](O)[C@H](N)C[C@H](N)[C@H]3O[C@H]3O[C@H](CN)[C@@H](O)[C@H](O)[C@H]3N)O[C@@H]2CO)[C@H](N)[C@@H](O)[C@@H]1O [FRAMYCETIN]	–	–	–	–	–	–	–	–	–	–	–	0.6 (≈ 0.976 µM)
CN[C@@H]1[C@H](O[C@H]2[C@H](O[C@H]3[C@H](O)[C@@H](O)[C@H](N=C(N)N)[C@@H](O)[C@@H]3N=C(N)N)O[C@@H](C)[C@]2(O)C=O)O[C@@H](CO)[C@H](O)[C@H]1O [STREPTOMYCIN]	–	–	–	–	–	–	–	–	–	0.73 (≈ 1.26 µM)	–	–
